# Assay results from publication PMC7016641, “The Role of Transient Receptor Potential Melastatin 7 (TRPM7) in Cell Viability: A Potential Target to Suppress Breast Cancer Cell Cycle” (Cancers, 2020).
# Molecular target: T1, TRPM7 (transient receptor potential melastatin 7) (Mus musculus, UniProt Q923J1)
# T1 construct: murine TRPM7 (GenBank AF376052) overexpressed in HEK293 (HEK-M7)
# Test: whole-cell patch clamp at +[…] mV; Fura-2 Mn2+ quench gave IC50 […]
# Assay type: cell-based
# T1 sequence (Q923J1 whole entry): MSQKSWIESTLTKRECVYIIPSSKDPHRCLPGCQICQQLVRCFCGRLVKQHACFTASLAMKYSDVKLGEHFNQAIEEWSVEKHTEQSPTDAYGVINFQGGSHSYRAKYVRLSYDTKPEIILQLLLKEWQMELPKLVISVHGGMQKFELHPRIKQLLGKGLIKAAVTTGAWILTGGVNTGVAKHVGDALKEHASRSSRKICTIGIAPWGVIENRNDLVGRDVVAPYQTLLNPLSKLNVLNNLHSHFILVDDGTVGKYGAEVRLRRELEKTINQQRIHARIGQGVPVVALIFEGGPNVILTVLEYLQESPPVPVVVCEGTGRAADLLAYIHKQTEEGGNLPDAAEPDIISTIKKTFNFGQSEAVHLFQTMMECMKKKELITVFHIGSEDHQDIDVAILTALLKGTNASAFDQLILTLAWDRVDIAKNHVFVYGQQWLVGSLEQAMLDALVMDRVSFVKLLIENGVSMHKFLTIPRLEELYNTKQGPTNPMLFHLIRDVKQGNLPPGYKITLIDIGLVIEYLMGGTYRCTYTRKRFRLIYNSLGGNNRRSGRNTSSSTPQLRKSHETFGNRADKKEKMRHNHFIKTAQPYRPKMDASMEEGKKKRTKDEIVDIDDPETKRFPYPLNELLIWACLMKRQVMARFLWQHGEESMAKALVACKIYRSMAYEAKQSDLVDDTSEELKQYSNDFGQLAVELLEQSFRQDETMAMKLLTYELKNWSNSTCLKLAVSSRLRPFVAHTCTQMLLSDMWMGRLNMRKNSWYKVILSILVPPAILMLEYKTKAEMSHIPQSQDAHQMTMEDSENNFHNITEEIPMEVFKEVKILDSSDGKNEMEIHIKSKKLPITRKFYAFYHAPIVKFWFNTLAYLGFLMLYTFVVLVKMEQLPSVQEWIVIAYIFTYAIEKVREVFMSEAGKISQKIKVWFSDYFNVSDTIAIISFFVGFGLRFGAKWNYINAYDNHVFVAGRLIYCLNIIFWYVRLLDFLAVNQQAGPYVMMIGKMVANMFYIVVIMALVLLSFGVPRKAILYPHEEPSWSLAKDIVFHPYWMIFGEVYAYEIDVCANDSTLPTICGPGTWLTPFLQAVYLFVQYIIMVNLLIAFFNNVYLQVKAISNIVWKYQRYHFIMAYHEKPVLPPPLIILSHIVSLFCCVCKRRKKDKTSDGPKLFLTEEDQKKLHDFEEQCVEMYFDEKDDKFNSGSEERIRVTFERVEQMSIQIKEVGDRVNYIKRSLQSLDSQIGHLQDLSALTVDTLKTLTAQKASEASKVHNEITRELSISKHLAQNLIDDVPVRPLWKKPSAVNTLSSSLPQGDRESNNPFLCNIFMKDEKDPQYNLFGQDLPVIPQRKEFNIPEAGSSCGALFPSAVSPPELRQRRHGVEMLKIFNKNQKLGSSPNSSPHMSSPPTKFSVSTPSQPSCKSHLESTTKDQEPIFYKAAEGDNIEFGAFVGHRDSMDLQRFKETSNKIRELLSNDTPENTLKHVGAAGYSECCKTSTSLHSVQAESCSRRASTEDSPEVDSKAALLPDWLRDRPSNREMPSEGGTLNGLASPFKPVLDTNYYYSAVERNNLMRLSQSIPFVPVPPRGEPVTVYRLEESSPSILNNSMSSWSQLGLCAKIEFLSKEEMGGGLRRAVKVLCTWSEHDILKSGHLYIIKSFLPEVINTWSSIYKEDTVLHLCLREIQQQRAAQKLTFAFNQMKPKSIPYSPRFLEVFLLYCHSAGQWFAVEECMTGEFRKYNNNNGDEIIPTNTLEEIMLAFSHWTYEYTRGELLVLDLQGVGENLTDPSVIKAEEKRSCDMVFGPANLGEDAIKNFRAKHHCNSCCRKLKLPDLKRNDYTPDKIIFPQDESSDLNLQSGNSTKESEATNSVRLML
smiles,measurement,value
"NCCOB(c1ccccc1)c1ccccc1 [2-APB, 2-aminoethyl diphenylborinate]",IC50,120 ± 16 µM
